Experimental findings from US8507538B2, “Selective heterocyclic sphingosine 1 phosphate receptor modulators” (Receptos, Inc., priority 2009, dated 2013) are described below.

Each structure is given as a SMILES string. Counter-ions that a name gives are not always drawn. Bounds are passed on as bounds.

S1P1/EDG1, sequence (P21453 whole entry): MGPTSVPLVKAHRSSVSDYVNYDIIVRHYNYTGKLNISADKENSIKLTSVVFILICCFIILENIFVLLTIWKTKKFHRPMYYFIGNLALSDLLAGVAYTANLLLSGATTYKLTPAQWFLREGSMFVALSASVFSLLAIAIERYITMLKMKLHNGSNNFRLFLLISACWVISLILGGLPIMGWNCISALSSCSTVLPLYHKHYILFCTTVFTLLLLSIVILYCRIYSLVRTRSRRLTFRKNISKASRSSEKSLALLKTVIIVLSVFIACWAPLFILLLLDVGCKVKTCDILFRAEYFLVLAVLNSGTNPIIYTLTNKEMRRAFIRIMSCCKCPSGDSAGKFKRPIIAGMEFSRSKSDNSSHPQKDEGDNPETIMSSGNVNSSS

This assay concerns the target S1P1/EDG1 (Homo sapiens, UniProt P21453). Nature of the assay: S1P1 CRE-bla CHOK1 reporter assay (inhibition of Forskolin induced cAMP). The settings on record: agonist activity range, Table 2; read-out: S1P1 ACTIVITY
The class given is cell-based. The source says:
A mammalian expression plasmid containing S1P1/EDG1 cloned into pcDNA3.1 was purchased from Missouri S&T cDNA Resource Centre. The nucleotide and amino acid sequence of human S1P1/EDG1 are published in Hla and Maciag (J Biol Chem, 265(1990), 9308-9313). S1P1/pcDNA3.1 was transfected into the CRE-bla CHO K1 (Invitrogen) cell line, and stable single cell clones were selected using standard techniques. Expression of functional SIP1/EDG1 receptor was confirmed by cell surface FACS with a S1P1 antibody (R&D Systems, clone 218713) and S1P-mediated inhibition of Forskolin induced cAMP.
Cells were seeded into 384-well black wall/clear bottom plates at 10^4 cells/well/19.5 μl assay media (DMEM-phenol free, 0.5% charcoal/dextran stripped serum, 2 mM glutamine, 0.1 mM NEAA, 1 mM Na-Pyruvate, 25 mM Hepes) and incubated for 18 hrs at 37° C. in 5% CO2. Dose response curves (10-point) were generated in 10 mM Hepes, 0.1% Pluronic F127, in the presence of Forskolin. Cells were treated with 0.5 μl compound in the presence of 2 μM Forskolin for 4 hrs at 37° C. The FRET-based β-lactamase fluorescent substrate (LiveBLAzer™ FRET B/G Loading Kit CC4-AM; Invitrogen) was prepared according to manufacturer's directions, and incubated with cells for 2 hrs at room temperature. Plates were read at Ex:410/Em:458 and Ex:410/Em:522, and the response ratio determined. Data was analyzed by non-linear regression to determine the EC50 for inhibition of Forskolin induced cAMP.
For orientation: Reporter assays use an easily measured gene product as a stand-in for the process of interest.
For the molecule `CC(C)Oc1ccc(-c2nnc(-c3cccc4c3CC[C@@H]4NC(=O)N(C)C)s2)cc1C#N` [Compound 67], the EC50 was 0.5 to 5 nM.

Turning to `CC(C)Oc1ccc(-c2nnc(-c3cccc4c3CC[C@@H]4NS(=O)(=O)CC(=O)N(C)C)s2)cc1C#N` [Compound 42, (S)-2-(N-(4-(5-(3-cyano-4-isopropoxyphenyl)-1,3,4-thiadiazol-2-yl)-2,3-dihydro-1H-inden-1-yl)sulfamoyl)-N,N-dimethylacetamide], the EC50 is 0.05 to 0.5 nM.

Take `CC(C)Oc1ccc(-c2ncc(-c3cccc4c3CC[C@@H]4NS(=O)(=O)CCN3CC[C@H](O)C3)s2)cc1C#N` [Compound 131]: the EC50 is 0.5 to 5 nM.

With `CC(C)Oc1ccc(-c2ncc(-c3cccc4c3CC[C@@H]4NC(=O)N(C)C)s2)cc1C#N` [Compound 169], the EC50 fell in the range of 0.5 to 5 nM.

For the molecule `CC(C)Oc1ccc(-c2ncc(-c3cccc4c3CCC4O)s2)cc1C#N` (stereo in doubt) [Compound 69, (R)-5-(5-(1-hydroxy-2,3-dihydro-1H-inden-4-yl)thiazol-2-yl)-2-isopropoxy benzonitrile], the EC50 lay in the range of 0.05 to 0.5 nM.

With `CC(C)Oc1ccc(-c2ncc(-c3cccc4c3CC[C@@H]4NC(=O)N3CCN(C)CC3)s2)cc1C#N` [Compound 191], the EC50 is greater than 5 nM.

As to `COCC(=O)N[C@@H]1CCc2c(-c3nnc(-c4ccc(OC(C)C)c(C#N)c4)s3)cccc21` [Compound 11], the EC50 was 0.05 to 0.5 nM.

Regarding `CC(C)Oc1ccc(-c2ncc(-c3cccc4c3CC[C@@H]4NC(=O)N3CCC[C@H](O)C3)s2)cc1C#N` [Compound 197], the EC50 lay in the range of 0.5 to 5 nM.

`CC(C)Oc1ccc(-c2ncc(-c3cccc4c3CC[C@@H]4N3CCC3)s2)cc1C#N` [Compound 206]: the EC50 fell in the range of 0.05 to 0.5 nM.

With `CC(=O)N[C@H]1CCc2c(-c3cnc(-c4ccc(OC(C)C)c(C#N)c4)s3)cccc21` [Compound 87], the EC50 was in the range of 0.05 to 0.5 nM.

`COCCS(=O)(=O)N[C@H]1CCc2c(-c3cnc(-c4ccc(OC(C)C)c(C#N)c4)s3)cccc21` [Compound 115]: the EC50 is 0.05 to 0.5 nM.

Turning to `CC(C)Oc1ccc(-c2ncc(-c3cccc4c3CC[C@@H]4NS(=O)(=O)CCN3CCCC3)s2)cc1C#N` [Compound 130], the EC50 fell in the range of 0.5 to 5 nM.

With `CC(C)Oc1ccc(-c2nnc(-c3cccc4c3CC[C@@H]4N)s2)cc1C#N` [Compound 4, (S)-5-(5-(1-amino-2,3-dihydro-1H-inden-4-yl)-1,3,4-thiadiazol-2-yl)-2-isopropoxybenzonitrile hydrochloride], the EC50 was 0.5 to 5 nM.

Consider `CC(C)Oc1ccc(-c2nnc(-c3cccc4c3CC[C@@H]4NCc3ncc[nH]3)s2)cc1C#N` [Compound 28, (S)-5-(5-(1-(((1H-imidazol-2-yl)methyl)amino)-2,3-dihydro-1H-inden-4-yl)-1,3,4-thiadiazol-2-yl)-2-isopropoxybenzonitrile], for which the EC50 fell in the range of 0.05 to 0.5 nM.

With `CC(C)Oc1ccc(-c2nnc(-c3cccc4c3CC[C@@H]4NC(=O)CO)s2)cc1C#N` [Compound 7, (S)-N-(4-(5-(3-cyano-4-isopropoxyphenyl)-1,3,4-thiadiazol-2-yl)-2,3-dihydro-1H-inden-1-yl)-2-hydroxyacetamide], the EC50 is less than 0.05 nM.

Turning to `CC(C)Oc1ccc(-c2nnc(-c3cccc4c3CC[C@@H]4NCCS(C)(=O)=O)s2)cc1C#N` [Compound 31, (S)-2-isopropoxy-5-(5-(1-((2-(methylsulfonyl)ethyl)amino)-2,3-dihydro-1H-inden-4-yl)-1,3,4-thiadiazol-2-yl)benzonitrile], the EC50 is 0.05 to 0.5 nM.

Turning to `CC(C)Oc1ccc(-c2ncc(-c3cccc4c3CCC4NCC(=O)N3CC[C@H](O)C3)s2)cc1C#N` (stereo in doubt) [Compound 102, 5-(5-((R)-1-((2-((S)-3-hydroxypyrrolidin-1-yl)-2-oxoethyl)amino)-2,3-dihydro-1H-inden-4-yl)thiazol-2-yl)-2-isopropoxybenzonitrile hydrochloride], the EC50 lay within 0.05 to 0.5 nM.

Take `CC(C)Oc1ccc(-c2ncc(-c3cccc4c3CCC4NCCO)s2)cc1C#N` (stereo in doubt) [Compound 91, (R)-5-(5-(1-((2-hydroxyethyl)amino)-2,3-dihydro-1H-inden-4-yl)thiazol-2-yl) -2-isopropoxybenzonitrile]: the EC50 lay in the range of 0.5 to 5 nM.

In the case of `CC(C)Oc1ccc(-c2ncc(-c3cccc4c3CCC4N3CC[C@@H](O)C3)s2)cc1C#N` (stereo partly drawn) [Compound 209], the EC50 was in the range of 0.5 to 5 nM.

Turning to `CC(C)Oc1ccc(-c2ncc(-c3cccc4c3CC[C@@H]4NS(=O)(=O)CCN3CCC(O)CC3)s2)cc1C#N` [Compound 146], the EC50 lay within 0.5 to 5 nM.

`CC(C)Oc1ccc(-c2ncc(-c3cccc4c3CC[C@@H]4NC(=O)N3CCC(CC(=O)O)CC3)s2)cc1C#N` [Compound 200]: the EC50 was in the range of 0.05 to 0.5 nM.

Turning to `CC(C)Oc1ccc(-c2ncc(-c3cccc4c3CCC4N3CC[C@H](O)C3)s2)cc1C#N` (stereo partly drawn) [Compound 210], the EC50 was 0.5 to 5 nM.

Turning to `CC(C)Oc1ccc(-c2nnc(-c3cccc4c3CC[C@@H]4NS(=O)(=O)CCN3CCC(O)C3)s2)cc1C#N` (stereo in doubt) [Compound 37, N-((S)-4-(5-(3-cyano-4-isopropoxyphenyl)-1,3,4-thiadiazol-2-yl)-2,3-dihydro-1H-inden-1-yl)-2-((R)-3-hydroxypyrrolidin-1-yl)ethanesulfonamide], the EC50 lay within 0.5 to 5 nM.

With `CC(C)Oc1ccc(-c2nnc(-c3cccc4c3CC[C@@H]4NS(=O)(=O)CCO)s2)cc1C#N` [Compound 45, (S)-N-(4-(5-(3-cyano-4-isopropoxyphenyl)-1,3,4-thiadiazol-2-yl)-2,3-dihydro-1H-inden-1-yl)-2-hydroxyethanesulfonamide], the EC50 was in the range of 0.05 to 0.5 nM.

`CC(C)Oc1ccc(-c2nnc(-c3cccc4c3CCC4N)s2)cc1C#N` (stereo in doubt) [Compound 5, (R)-5-(5-(1-amino-2,3-dihydro-1H-inden-4-yl)-1,3,4-thiadiazol-2-yl) -2 isopropoxybenzonitrile hydrochloride]: the EC50 is 0.5 to 5 nM.

For the molecule `CC(C)Oc1ccc(-c2ncc(-c3cccc4c3CC[C@@H]4NCC(=O)N3CCCC3)s2)cc1C#N` [Compound 100], the EC50 was 0.05 to 0.5 nM.

`CC(C)Oc1ccc(-c2nnc(-c3cccc4c3CC[C@@H]4NC(=O)N3CCC[C@H](O)C3)s2)cc1C#N` [Compound 61]: the EC50 was 0.05 to 0.5 nM.

With `CC(C)Oc1ccc(-c2ncc(-c3cccc4c3CC[C@@H]4NCC(=O)O)s2)cc1C#N` [Compound 97, (S)-2-((4-(2-(3-cyano-4-isopropoxyphenyl)thiazol-5-yl)-2,3-dihydro-1H-inden-1-yl)amino)acetic acid], the EC50 is 0.05 to 0.5 nM.

With `CC(C)Oc1ccc(-c2ncc(-c3cccc4c3CC[C@@H]4NC(=O)N3CC[C@H](N)C3)s2)cc1C#N` [Compound 179], the EC50 lay in the range of 0.5 to 5 nM.

Take `CC(C)Oc1ccc(-c2ncc(-c3cccc4c3CCC4N3CC(O)C3)s2)cc1C#N` (stereo not drawn) [Compound 207, 5-(5-(1-(3-hydroxyazetidin-1-yl)-2,3-dihydro-1H-inden-4-yl)thiazol-2-yl)-2-isopropoxybenzonitrile]: the EC50 fell in the range of 0.5 to 5 nM.

In the case of `CC(C)Oc1ccc(-c2nnc(-c3cccc4c3CC[C@@H]4NS(=O)(=O)CC(=O)O)s2)cc1C#N` [Compound 40, (S)-2-(N-(4-(5-(3-cyano-4-isopropoxyphenyl)-1,3,4-thiadiazol-2-yl)-2,3-dihydro-1H-inden-1-yl)sulfamoyl)acetic acid], the EC50 was 0.05 to 0.5 nM.

In the case of `CC(C)Oc1ccc(-c2nnc(-c3cccc4c3CC[C@@H]4NC(=O)N3CCCC3)s2)cc1C#N` [Compound 53], the EC50 was 0.5 to 5 nM.

Regarding `CC(C)Oc1ccc(-c2ncc(-c3cccc4c3CCC4NS(=O)(=O)CC(=O)O)s2)cc1C#N` (stereo in doubt) [Compound 158, (R)-2-(N-(4-(2-(3-cyano-4-isopropoxyphenyl)thiazol-5-yl)-2,3-dihydro-1H-inden-1-yl)sulfamoyl)acetic acid], the EC50 is less than 0.05 nM.

`COCCS(=O)(=O)N[C@H]1CCc2c(-c3cnc(-c4ccc(OC(C)C)c(C#N)c4)s3)cccc21` [Compound 116]: the EC50 fell in the range of 0.5 to 5 nM.

For `CC(C)Oc1ccc(-c2nnc(-c3cccc4c3CC[C@@H]4NCC(=O)N3CCOCC3)s2)cc1C#N` [Compound 25], the EC50 is 0.05 to 0.5 nM.

In the case of `CC(C)Oc1ccc(-c2ncc(-c3cccc4c3CC[C@@H]4NC(=O)CN)s2)cc1C#N` [Compound 77], the EC50 was in the range of 0.05 to 0.5 nM.

`CC(C)Oc1ccc(-c2ncc(-c3cccc4c3CC[C@@H]4NS(=O)(=O)C3CC3)s2)cc1C#N` [Compound 117]: the EC50 was in the range of 0.05 to 0.5 nM.

Consider `CC(C)Oc1ccc(-c2ncc(-c3cccc4c3CC[C@@H]4NCC(=O)N3CCCC3)s2)cc1C#N` [Compound 101], for which the EC50 is greater than 5 nM.

For the molecule `CC(C)Oc1ccc(-c2ncc(-c3cccc4c3CC[C@@H]4NC(=O)N3CCN(C)CC3)s2)cc1C#N` [Compound 190], the EC50 is 0.5 to 5 nM.

`CC(C)Oc1ccc(-c2ncc(-c3cccc4c3CCC4N3CCCCC3)s2)cc1C#N` (stereo not drawn) [Compound 213]: the EC50 was 0.5 to 5 nM.

For the molecule `CC(C)Oc1ccc(-c2ncc(-c3cccc4c3CC[C@@H]4NCC(=O)N3CCNCC3)s2)cc1C#N` [Compound 108], the EC50 was greater than 5 nM.

As to `CC(C)Oc1ccc(-c2ncc(-c3cccc4c3CCC4N3CCNCC3)s2)cc1C#N` (stereo not drawn) [Compound 215], the EC50 fell in the range of 0.5 to 5 nM.
